We go through 29 molecules from ChEMBL document CHEMBL1129421, “Comparative molecular field analysis of haptens docked to the multispecific antibody IgE(Lb4)” (J Med Chem, 1996).

This experiment deals with Monoclonal antibody (mAb). The experiment can be described thus: Ability to bind to monoclonal antibody IgE (Lb4), expressed as association constant (LogKA).
For the molecule `N#C/C(=C\c1ccccc1)C(=O)O`, the Log KA is 5.04.
With `CSCCC(Nc1ccc([N+](=O)[O-])cc1[N+](=O)[O-])C(=O)O` (centres undefined) the figure was 5.72; with `N=C(N)NCCC[C@H](Nc1ccc([N+](=O)[O-])cc1[N+](=O)[O-])C(=O)O`, 5.04; with `CC(C)C(Nc1ccc([N+](=O)[O-])cc1[N+](=O)[O-])C(=O)O` (centres undefined), 5.93.
Turning to `CC(Nc1ccc([N+](=O)[O-])cc1[N+](=O)[O-])C(=O)O` (centres undefined), the Log KA was determined as 5.8.
On to `O[C@](CCN1CCCCC1)(c1ccccc1)C1CCCC1`, for which the Log KA was 4.84.
The value for `O=C(O)c1cccc(C(=O)O)c1C(=O)O` was 4.77.
With `O=C(O)CNc1ccc([N+](=O)[O-])cc1[N+](=O)[O-]` the figure was 4.9.
`O=C(O)c1ccc2ccccc2c1O` yielded a Log KA of 6.71.
Regarding `NC(=O)CCC(Nc1ccc([N+](=O)[O-])cc1[N+](=O)[O-])C(=O)O` (centres undefined), the Log KA is 5.08.
As to `Cc1ccc(O)c(C(=O)O)c1`, the Log KA was found to be 5.38.
With `O=C(O)C(CO)Nc1ccc([N+](=O)[O-])cc1[N+](=O)[O-]` (centres undefined) the figure was 5.5; with `O=C(CCC(=O)Oc1ccccc1C(=O)O)Oc1ccccc1C(=O)O`, 4.57; with `N[C@@H](CCCCNc1ccc([N+](=O)[O-])cc1[N+](=O)[O-])C(=O)O`, 4.38.
With `C[N+](C)(C)CC(O)C[N+](C)(C)C` the figure was 4.66; with `NC(=O)CC(Nc1ccc([N+](=O)[O-])cc1[N+](=O)[O-])C(=O)O` (centres undefined), 4.92; with `Nc1ccc(/N=N/c2ccccc2)c(N)n1`, 6.5.
The value for `O=C(O)CC(Nc1ccc([N+](=O)[O-])cc1[N+](=O)[O-])C(=O)O` (centres undefined) was 5.5.
`CC(O)C(Nc1ccc([N+](=O)[O-])cc1[N+](=O)[O-])C(=O)O` (centres undefined) showed a Log KA of 5.49.
With `O[C@@](CCN1CCCCC1)(c1ccccc1)C1CCCC1` the figure was 4.84; with `O=C(O)C(Cc1c[nH]c2ccccc12)Nc1ccc([N+](=O)[O-])cc1[N+](=O)[O-]` (centres undefined), 5.93; with `O=C(O)CCC(Nc1ccc([N+](=O)[O-])cc1[N+](=O)[O-])C(=O)O` (centres undefined), 4.63.
With `O=C(O)C1CCCN1c1ccc([N+](=O)[O-])cc1[N+](=O)[O-]` (centres undefined) the figure was 5.19; with `Nc1ccc2ccccc2c1`, 5.71; with `CC(C)CC(Nc1ccc([N+](=O)[O-])cc1[N+](=O)[O-])C(=O)O` (centres undefined), 5.39.
With `O=[N+]([O-])c1ccc(O)c([N+](=O)[O-])c1` the figure was 4.89; with `CC(=O)Nc1nnc(S(N)(=O)=O)s1`, 5.
The molecule `O=C(O)C(Cc1ccccc1)Nc1ccc([N+](=O)[O-])cc1[N+](=O)[O-]` (centres undefined) gave a Log KA of 5.78.
With `O=C(O)C(Cc1ccc(O)cc1)Nc1ccc([N+](=O)[O-])cc1[N+](=O)[O-]` (centres undefined) the figure was 4.85.
